# Experimental data from patent US20260262643A1, “HERBICIDAL BENZOXAZINES” (FMC CORPORATION, priority 2022, published 2026).
# Experiments:
# kochia [1] = assay: Test A preemergence; type: in vivo, Bassia scoparia; details: visual injury after 10 days, 0 to 100 scale, 0 is no effect, 100 is complete control
# Method in brief: (§1)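 Weeds and crops in loam–sand blend were sprayed preemergence onto soil or postemergence at 2–10 cm (one- to two-leaf stage). Test chemicals were in a non-phytotoxic solvent with surfactant. After 10 days in the greenhouse, injury was rated visually against untreated controls on a 0 (no effect) to 100 (complete control) scale.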
# corn [2] = assay: Test A postemergence; type: in vivo, Zea mays; details: postemergence, 10 days
# Method in brief: as §1
# ragweed [3] = assay: Test A postemergence; type: in vivo, Ambrosia artemisiifolia; details: postemergence, 10 days
# Method in brief: as §1
# horseweed = assay: Test A postemergence; type: in vivo, Erigeron canadensis; details: postemergence, 10 days
# Method in brief: as §1
# wheat [4] = assay: Test A preemergence; type: in vivo, Triticum aestivum; details: visual injury after 10 days, 0 to 100 scale, 0 is no effect, 100 is complete control
# Method in brief: as §1
# barnyardgrass [5] = assay: Test A postemergence; type: in vivo, Echinochloa crusgalli; details: postemergence, 10 days
# Method in brief: as §1
# corn [6] = assay: Test A preemergence; type: in vivo, Zea mays; details: visual injury after 10 days, 0 to 100 scale, 0 is no effect, 100 is complete control
# Method in brief: as §1
# ducksalad = assay: Test B flooded paddy test; type: in vivo, Heteranthera limosa; details: 250 g ai/ha, Flood, 13 days, 0 to 100 scale (0 no effect, 100 complete control)
# Method in brief: (§2)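 Two-leaf plants, 3 cm flood, in-water application, 13-day greenhouse hold, visual 0–100 rating vs untreated checks.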
# barnyardgrass [7] = assay: Test A preemergence; type: in vivo, Echinochloa crusgalli; details: visual injury after 10 days, 0 to 100 scale, 0 is no effect, 100 is complete control
# Method in brief: as §1
# oat, wild [8] = assay: Test A postemergence; type: in vivo, Avena fatua; details: postemergence, 10 days
# Method in brief: as §1
# foxtail, giant [9] = assay: Test A postemergence; type: in vivo, Setaria faberi; details: postemergence, 10 days
# Method in brief: as §1
# soybean [10] = assay: Test A preemergence; type: in vivo, Glycine max; details: visual injury after 10 days, 0 to 100 scale, 0 is no effect, 100 is complete control
# Method in brief: as §1
# ryegrass, Italian [11] = assay: Test A postemergence; type: in vivo, Lolium multiflorum; details: postemergence, 10 days
# Method in brief: as §1
# galium = assay: Test A postemergence; type: in vivo, Galium aparine; details: postemergence, 10 days
# Method in brief: as §1
# soybean [12] = assay: Test A postemergence; type: in vivo, Glycine max; details: postemergence, 10 days
# Method in brief: as §1
# wheat [13] = assay: Test A postemergence; type: in vivo, Triticum aestivum; details: postemergence, 10 days
# Method in brief: as §1
# pigweed, palmer [14] = assay: Test A postemergence; type: in vivo, Amaranthus palmeri; details: postemergence, 10 days
# Method in brief: as §1
# blackgrass [15] = assay: Test A postemergence; type: in vivo, Alopecurus myosuroides; details: postemergence, 10 days
# Method in brief: as §1
# ragweed [16] = assay: Test A preemergence; type: in vivo, Ambrosia artemisiifolia; details: visual injury after 10 days, 0 to 100 scale, 0 is no effect, 100 is complete control
# Method in brief: as §1
# oat, wild [17] = assay: Test A preemergence; type: in vivo, Avena fatua; details: visual injury after 10 days, 0 to 100 scale, 0 is no effect, 100 is complete control
# Method in brief: as §1
# barnyardgrass [18] = assay: Test B flooded paddy test; type: in vivo, Echinochloa crus-galli; details: 250 g ai/ha, Flood, 13 days, 0 to 100 scale (0 no effect, 100 complete control)
# Method in brief: as §2
# blackgrass [19] = assay: Test A preemergence; type: in vivo, Alopecurus myosuroides; details: visual injury after 10 days, 0 to 100 scale, 0 is no effect, 100 is complete control
# Method in brief: as §1
# foxtail, giant [20] = assay: Test A preemergence; type: in vivo, Setaria faberi; details: visual injury after 10 days, 0 to 100 scale, 0 is no effect, 100 is complete control
# Method in brief: as §1
# kochia [21] = assay: Test A postemergence; type: in vivo, Bassia scoparia; details: postemergence, 10 days
# Method in brief: as §1
# sedge, umbrella = assay: Test B flooded paddy test; type: in vivo, Cyperus difformis; details: 250 g ai/ha, Flood, 13 days, 0 to 100 scale (0 no effect, 100 complete control)
# Method in brief: as §2
# pigweed, palmer [22] = assay: Test A preemergence; type: in vivo, Amaranthus palmeri; details: visual injury after 10 days, 0 to 100 scale, 0 is no effect, 100 is complete control
# Method in brief: as §1
# ryegrass, Italian [23] = assay: Test A preemergence; type: in vivo, Lolium multiflorum; details: visual injury after 10 days, 0 to 100 scale, 0 is no effect, 100 is complete control
# Method in brief: as §1
# rice = assay: Test B flooded paddy test; type: in vivo, Oryza sativa; details: 250 g ai/ha, Flood, 13 days, 0 to 100 scale (0 no effect, 100 complete control)
# Method in brief: as §2
# [24] = 125 g ai/ha, 0 to 100 scale, 0 no effect, 100 complete control
# [25] = 500 g ai/ha, visual injury, 0 to 100 scale (0 no effect, 100 complete control)
smiles,measurement,setting,value
COCCc1ncn(-c2cccc(C(=O)N3C[C@H](C)Oc4c(C)cccc43)c2)n1 [Compound 113],"Plant response rating, Kochia",kochia [1]; 125 g ai/ha,60
same,"Plant response rating, Kochia",kochia [1]; 500 g ai/ha,100
same,Corn plant response rating,corn [2]; [24],90
same,"Plant response rating, Corn",corn [2]; [25],90
same,Ragweed plant response rating,ragweed [3]; [24],50
same,"Plant response rating, Ragweed",ragweed [3]; [25],50
same,Horseweed plant response rating,horseweed; [24],10
same,"Plant response rating, Horseweed",horseweed; [25],30
same,"Plant response rating, Wheat",wheat [4]; 125 g ai/ha,80
same,"Plant response rating, Wheat",wheat [4]; 500 g ai/ha,90
same,Barnyardgrass plant response rating,barnyardgrass [5]; [24],60
same,"Plant response rating, Barnyardgrass",barnyardgrass [5]; [25],90
same,"Plant response rating, Corn",corn [6]; 125 g ai/ha,20
same,"Plant response rating, Corn",corn [6]; 500 g ai/ha,90
same,"Plant response rating, Ducksalad",ducksalad,65
same,"Plant response rating, Barnyardgrass",barnyardgrass [7]; 125 g ai/ha,90
same,"Plant response rating, Barnyardgrass",barnyardgrass [7]; 500 g ai/ha,100
same,"Oat, Wild plant response rating","oat, wild [8]; [24]",70
same,"Plant response rating, Oat, Wild","oat, wild [8]; [25]",80
same,"Foxtail, Giant plant response rating","foxtail, giant [9]; [24]",60
same,"Plant response rating, Foxtail, Giant","foxtail, giant [9]; [25]",90
same,"Plant response rating, Soybean",soybean [10]; 125 g ai/ha,30
same,"Plant response rating, Soybean",soybean [10]; 500 g ai/ha,80
same,"Ryegrass, Italian plant response rating","ryegrass, Italian [11]; [24]",50
same,"Plant response rating, Ryegrass, Italian","ryegrass, Italian [11]; [25]",100
same,Galium plant response rating,galium; [24],90
same,"Plant response rating, Galium",galium; [25],100
same,Soybean plant response rating,soybean [12]; [24],100
same,"Plant response rating, Soybean",soybean [12]; [25],100
same,Wheat plant response rating,wheat [13]; [24],50
same,"Plant response rating, Wheat",wheat [13]; [25],80
same,"Pigweed, Palmer plant response rating","pigweed, palmer [14]; [24]",30
same,"Plant response rating, Pigweed, Palmer","pigweed, palmer [14]; [25]",80
same,Blackgrass plant response rating,blackgrass [15]; [24],80
same,"Plant response rating, Blackgrass",blackgrass [15]; [25],90
same,"Plant response rating, Ragweed",ragweed [16]; 125 g ai/ha,0
same,"Plant response rating, Ragweed",ragweed [16]; 500 g ai/ha,70
same,"Plant response rating, Oat, Wild","oat, wild [17]; 125 g ai/ha",80
same,"Plant response rating, Oat, Wild","oat, wild [17]; 500 g ai/ha",90
same,"Plant response rating, Barnyardgrass",barnyardgrass [18],45
same,"Plant response rating, Blackgrass",blackgrass [19]; 125 g ai/ha,70
same,"Plant response rating, Blackgrass",blackgrass [19]; 500 g ai/ha,90
same,"Plant response rating, Foxtail, Giant","foxtail, giant [20]; 125 g ai/ha",100
same,"Plant response rating, Foxtail, Giant","foxtail, giant [20]; 500 g ai/ha",100
same,Kochia plant response rating,kochia [21]; [24],40
same,"Plant response rating, Kochia",kochia [21]; [25],90
same,"Plant response rating, Sedge, Umbrella","sedge, umbrella",80
same,"Plant response rating, Pigweed, Palmer","pigweed, palmer [22]; 125 g ai/ha",90
same,"Plant response rating, Pigweed, Palmer","pigweed, palmer [22]; 500 g ai/ha",100
same,"Plant response rating, Ryegrass, Italian","ryegrass, Italian [23]; 125 g ai/ha",90
same,"Plant response rating, Ryegrass, Italian","ryegrass, Italian [23]; 500 g ai/ha",100
same,"Plant response rating, Rice",rice,0
